From PubChem BioAssay AID256 (DTP/NCI, 2004)
Where “and” joins values, the source holds several entries; their conditions need not be identical. Equal entries are not always repeated. Toxic doses and inconclusive results are not listed. The calls were made as follows: active = survival T/C of 150% or more; inactive = T/C below 125% in these data.

Test system: CD2F1 mice, L1210 leukemia ip, survival T/C
Assay: NCI In Vivo Anticancer Drug Screen. Data for tumor model L1210 Leukemia (intraperitoneal) in CD2F1 (CDF1) mice
Conditions: higher = longer survival
Summary of the method: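 Tumor-bearing mice (transplanted tumor) were split into treated and vehicle control groups, and the measured endpoint of each treated group was divided by that of its vehicle controls.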

[1] = endpoint: mean survival time, dose: 100.0 mg/kg/injection, schedule: Q04DX003 (ip), vehicle: saline with Tween-80
[2] = endpoint: mean survival time, dose: 200.0 mg/kg/injection, schedule: Q04DX003 (ip), vehicle: saline with Tween-80
[3] = endpoint: mean survival time, dose: 400.0 mg/kg/injection, schedule: Q04DX003 (ip), vehicle: saline with Tween-80
[4] = endpoint: mean survival time, dose: 6.25 mg/kg/injection, schedule: Q01DX009 (ip), vehicle: saline with Tween-80
[5] = endpoint: mean survival time, dose: 12.5 mg/kg/injection, schedule: Q01DX009 (ip), vehicle: saline with Tween-80
[6] = endpoint: mean survival time, dose: 25.0 mg/kg/injection, schedule: Q01DX009 (ip), vehicle: saline with Tween-80
[7] = endpoint: mean survival time, dose: 50.0 mg/kg/injection, schedule: Q01DX009 (ip), vehicle: saline with Tween-80
[8] = endpoint: mean survival time, dose: 25.0 mg/kg/injection, schedule: Q04DX002 (ip), vehicle: saline with Tween-80
[9] = endpoint: mean survival time, dose: 50.0 mg/kg/injection, schedule: Q04DX002 (ip), vehicle: saline with Tween-80
[10] = endpoint: mean survival time, dose: 100.0 mg/kg/injection, schedule: Q01DX009 (ip), vehicle: saline with Tween-80
[11] = endpoint: mean survival time, dose: 200.0 mg/kg/injection, schedule: Q01DX009 (ip), vehicle: saline with Tween-80
[12] = endpoint: mean survival time, dose: 50.0 mg/kg/injection, schedule: Q01DX009 (ip), vehicle: saline
[13] = endpoint: mean survival time, dose: 100.0 mg/kg/injection, schedule: Q01DX009 (ip), vehicle: saline
[14] = endpoint: mean survival time, dose: 200.0 mg/kg/injection, schedule: Q01DX009 (ip), vehicle: saline

Measured: T/C

CCOC(=O)c1c2cccccc-2c(C(=O)OCC)c1N
inactive: [1] 95 % of control | [2] 109 % of control | [3] 92 % of control

Cc1cc(-c2ccccc2)c2c(C#N)cn(-c3ccccc3)c2n1
inactive: endpoint: mean survival time, dose: 100.0 mg/kg/injection, schedule: Q01DX001 (ip), vehicle: saline 87 % of control | endpoint: mean survival time, dose: 200.0 mg/kg/injection, schedule: Q01DX001 (ip), vehicle: saline 92 % of control | endpoint: mean survival time, dose: 400.0 mg/kg/injection, schedule: Q01DX001 (ip), vehicle: saline 92 % of control

Brc1cscc1-c1ccccc1
inactive: [1] 93 % of control | [2] 102 % of control | [3] 98 % of control

COc1ccccc1C(=Nc1ccccc1)N(O)c1ccccc1
inactive: endpoint: mean survival time, dose: 2.5 mg/kg/injection, schedule: Q01DX001 (ip), vehicle: saline with Tween-80 114 % of control | endpoint: mean survival time, dose: 2.5 mg/kg/injection, schedule: Q04DX003 (ip), vehicle: saline with Tween-80 101 % of control | endpoint: mean survival time, dose: 5.0 mg/kg/injection, schedule: Q01DX001 (ip), vehicle: saline with Tween-80 112 % of control | endpoint: mean survival time, dose: 5.0 mg/kg/injection, schedule: Q04DX003 (ip), vehicle: saline with Tween-80 101 % of control | endpoint: mean survival time, dose: 10.0 mg/kg/injection, schedule: Q01DX001 (ip), vehicle: saline with Tween-80 114 % of control | endpoint: mean survival time, dose: 10.0 mg/kg/injection, schedule: Q04DX003 (ip), vehicle: saline with Tween-80 98 % of control

CCCCCCCCCCCCSC1=C(Cl)C(=O)C(OC)=C(OC)C1=O
inactive: [4] 91 % of control | [5] 94 % of control | [6] 95 % of control | [7] 93 % of control

COC1SCCCS1
inactive: endpoint: mean survival time, dose: 12.5 mg/kg/injection, schedule: Q04DX002 (ip), vehicle: saline with Tween-80 97 % of control | [8] 108 % of control | [9] 105 % of control

Cc1ccc(NC(=O)Nc2ccccc2C(F)(F)F)cc1NC(=O)Nc1ccccc1C(F)(F)F
inactive: [1] 96 % of control | [2] 98 % of control | [3] 104 % of control

O=C1C=CC(=O)C(c2cn(C3CC(O)C(CO)O3)c(=O)[nH]c2=O)=C1 (stereo unspecified)
inactive: endpoint: median survival time, dose: 12.5 mg/kg/injection, schedule: Q01DX005 (ip), vehicle: saline with Tween-80 111 % of control | endpoint: median survival time, dose: 25.0 mg/kg/injection, schedule: Q01DX005 (ip), vehicle: saline with Tween-80 111 % of control | endpoint: median survival time, dose: 50.0 mg/kg/injection, schedule: Q01DX005 (ip), vehicle: saline with Tween-80 108 % of control | endpoint: median survival time, dose: 100.0 mg/kg/injection, schedule: Q01DX005 (ip), vehicle: saline with Tween-80 121 % of control | endpoint: median survival time, dose: 200.0 mg/kg/injection, schedule: Q01DX005 (ip), vehicle: saline with Tween-80 105 % of control

N#CC(NCc1ccccc1)c1ccc2c(c1)OCO2 (stereo unspecified)
inactive: [7] 98 % of control | [10] 90 % of control | [1] 99 % of control | [2] 108 % of control

COc1ccc(F)c(NC(=O)/C=N/O)c1
inactive: [1] 102 % of control | [2] 102 % of control | [3] 100 % of control

COc1cc2c(cc1OC)C1CC(=O)CCN1CC2 (stereo unspecified)
inactive: endpoint: mean survival time, dose: 12.5 mg/kg/injection, schedule: Q01DX009 (ip), vehicle: Klucel (hydroxypropylcellulose) (HPC) 97 % of control and 104 % of control | endpoint: mean survival time, dose: 25.0 mg/kg/injection, schedule: Q01DX009 (ip), vehicle: Klucel (hydroxypropylcellulose) (HPC) 97 % of control and 98 % of control | endpoint: mean survival time, dose: 50.0 mg/kg/injection, schedule: Q01DX009 (ip), vehicle: Klucel (hydroxypropylcellulose) (HPC) 95 % of control and 98 % of control | endpoint: mean survival time, dose: 100.0 mg/kg/injection, schedule: Q01DX009 (ip), vehicle: Klucel (hydroxypropylcellulose) (HPC) 97 % of control and 100 % of control | endpoint: median survival time, dose: 12.5 mg/kg/injection, schedule: Q01DX009 (ip), vehicle: Klucel (hydroxypropylcellulose) (HPC) 97 % of control | endpoint: median survival time, dose: 25.0 mg/kg/injection, schedule: Q01DX009 (ip), vehicle: Klucel (hydroxypropylcellulose) (HPC) 94 % of control | endpoint: median survival time, dose: 50.0 mg/kg/injection, schedule: Q01DX009 (ip), vehicle: Klucel (hydroxypropylcellulose) (HPC) 92 % of control | endpoint: median survival time, dose: 100.0 mg/kg/injection, schedule: Q01DX009 (ip), vehicle: Klucel (hydroxypropylcellulose) (HPC) 101 % of control

COC12[C@@H](COC(N)=O)C3=C(C(=O)C(C)=C(NCCSSCCNC4=C(C)C(=O)C5=C(C4=O)C(COC(N)=O)[C@]4(OC)C6[C@@H](CN54)N6C)C3=O)N1C[C@@H]1[C@H]2N1C (stereo partly specified)
inactive: endpoint: mean survival time, dose: 6.0 mg/kg/injection, schedule: Q01DX001 (ip), vehicle: distilled water + Tween-80 114 % of control

O=C(O)c1cc(Cl)c(Cl)cn1
inactive: endpoint: mean survival time, dose: 50.0 mg/kg/injection, schedule: Q01DX001 (ip), vehicle: saline with Tween-80 97 % of control | endpoint: mean survival time, dose: 100.0 mg/kg/injection, schedule: Q01DX001 (ip), vehicle: saline with Tween-80 98 % of control | endpoint: mean survival time, dose: 200.0 mg/kg/injection, schedule: Q01DX001 (ip), vehicle: saline with Tween-80 103 % of control

Cc1cc2cc3n(c2nn1)N=C(Cl)CC3
inactive: endpoint: mean survival time, dose: 61.87 mg/kg/injection, schedule: Q04DX002 (ip), vehicle: Klucel (hydroxypropylcellulose) (HPC) 103 % of control | endpoint: mean survival time, dose: 100.0 mg/kg/injection, schedule: Q04DX002 (ip), vehicle: Klucel (hydroxypropylcellulose) (HPC) 101 % of control | endpoint: mean survival time, dose: 123.75 mg/kg/injection, schedule: Q04DX002 (ip), vehicle: Klucel (hydroxypropylcellulose) (HPC) 105 % of control | endpoint: mean survival time, dose: 200.0 mg/kg/injection, schedule: Q04DX002 (ip), vehicle: Klucel (hydroxypropylcellulose) (HPC) 103 % of control | endpoint: mean survival time, dose: 247.5 mg/kg/injection, schedule: Q04DX002 (ip), vehicle: Klucel (hydroxypropylcellulose) (HPC) 109 % of control

Cc1[nH]c2ccc(N=CN(C)C)cc2c1C
inactive: [8] 111 % of control | [9] 111 % of control

COCCCNCCCN1CC1
inactive: endpoint: mean survival time, dose: 16.62 mg/kg/injection, schedule: Q01DX009 (ip), vehicle: saline 115 % of control | endpoint: mean survival time, dose: 31.25 mg/kg/injection, schedule: Q01DX009 (ip), vehicle: saline 107 % of control | endpoint: mean survival time, dose: 62.5 mg/kg/injection, schedule: Q01DX009 (ip), vehicle: saline 94 % of control

CCCCCCCCCCCCCCCC(=O)N(CCCCN(CCCN(C)C)C(=O)CCCCCCCCCCCCCCC)CCCN(C)C
inactive: [6] 93 % of control | [7] 91 % of control

C[Si](C)(C)c1c(F)c(F)c(F)c(F)c1F
inactive: [1] 96 % of control | [2] 94 % of control | [3] 88 % of control

Cc1cc(C=O)c(C)n1-c1ccc(C(=O)O)cc1
inactive: [7] 101 % of control | [10] 93 % of control | [11] 101 % of control

CN(C)C(=O)C1C2C=CC(CCC2)C1C(=O)N(C)C (stereo unspecified)
inactive: endpoint: mean survival time, dose: 100.0 mg/kg/injection, schedule: Q04DX002 (ip), vehicle: saline 91 % of control | endpoint: mean survival time, dose: 200.0 mg/kg/injection, schedule: Q04DX002 (ip), vehicle: saline 88 % of control | endpoint: mean survival time, dose: 400.0 mg/kg/injection, schedule: Q04DX002 (ip), vehicle: saline 91 % of control

CCC1(CC)C=CCC/C1=N\NS(=O)(=O)c1ccc(C)cc1
inactive: [7] 95 % of control | [10] 90 % of control | [1] 95 % of control | [11] 93 % of control | [2] 91 % of control

CCOC(=O)c1cc(Cl)cc(Cl)c1N=NN(C)C
inactive: endpoint: mean survival time, dose: 25.0 mg/kg/injection, schedule: Q01DX009 (ip), vehicle: saline 93 % of control | [12] 93 % of control | [13] 100 % of control | [14] 97 % of control

CC(=O)OC(CC(=O)CC(O)(C(F)(F)F)C(F)(F)F)(C(F)(F)F)C(F)(F)F
inactive: endpoint: mean survival time, dose: 6.25 mg/kg/injection, schedule: Q04DX003 (ip), vehicle: saline 95 % of control | endpoint: mean survival time, dose: 12.5 mg/kg/injection, schedule: Q04DX003 (ip), vehicle: saline 98 % of control | endpoint: mean survival time, dose: 25.0 mg/kg/injection, schedule: Q04DX003 (ip), vehicle: saline 96 % of control

O=c1[nH]c2cc3ccccc3cc2c(=O)o1
inactive: [1] 92 % of control | [2] 88 % of control | [3] 98 % of control

CCOC(=O)c1cn[nH]c1/N=N/N(C)C
inactive: endpoint: mean survival time, dose: 100.0 mg/kg/injection, schedule: Q01DX001 (ip), vehicle: carboxymethylcellulose (CMC) 115 % of control

Nc1cc(Cl)c2ncn(C3OC(CO)C(O)C3O)c2n1 (stereo unspecified)
inactive: [12] 107 % of control | [13] 104 % of control | [14] 104 % of control

CCCCCCC(C)=O
inactive: [1] 98 % of control | [2] 96 % of control | [3] 91 % of control

CCOC(=O)/C(N=O)=C(/C)O
inactive: [13] 96 % of control | [14] 101 % of control | endpoint: mean survival time, dose: 400.0 mg/kg/injection, schedule: Q01DX009 (ip), vehicle: saline 110 % of control

O=C(COc1ccc(Cl)c(Cl)c1)Nc1ccc(Cl)cc1
inactive: [4] 98 % of control | [5] 98 % of control | [6] 98 % of control

O=C(N/N=C/c1ccc(Cl)cc1)C(O)(c1ccccc1)c1ccccc1
inactive: [6] 102 % of control | [7] 91 % of control | [10] 96 % of control
